Experimental data as given in US3949090A, “Methods and compositions for improving feed efficiency in ruminants using dithiooxamide” (SmithKline Corporation, priority 1974, dated 1976).
Like-named read-outs stand apart in the source and are kept apart here.

Assays:
[1] = tested on: gas production (strained rumen fluid); assay: In vitro gas production; format: cell-based; settings: Table III, control 65
Experimental: (§1) The in vitro fermentation system contained 75 ml. strained rumen fluid, 200 mg, alfalfa hay, 800 mg. of a crude protein grain mixture, 0.8 to 1.6 mM of each of 10 essential amino acids (threonine, valine, methionine, isoleucine, leucine, phelylalanine, tryptophan, lysine and arginine), and 0 to 50 ppm dithiooxamide. Flasks were incubated for 4 hours with effects upon amino acid deamination assessed as described for the previous system. Using standard chromatographic techniques, effects upon methanogenesis and upon the pattern of volatile fatty acid production were determined.
(§2) ^1 In vitro fermentation system contained 75 ml. strained rumen fluid
(§3) 200 mg. alfalfa hay, 800 mg. grain mixture (16% crude protein) and 0.8 mM
(§4) of each of ten essential amino acids. Flasks were incubated for four

[2] = tested on: methanogenesis (strained rumen fluid); assay: In vitro effects upon methanogenesis; format: cell-based
Experimental: as §1, §2
(§5) 200 mg. alfalfa hay, 800 mg. grain mixture (16% crude protein) and 1.6 mM
as §4, §3

[3] = tested on: Microbial Deaminase (strained rumen fluid); assay: In vitro microbial deaminase inhibition (rumen fluid, alfalfa hay, grain mixture; 4 hours); format: cell-based; settings: for MDI (%): 240 min
Experimental: as §1, §2, §5, §4, §3

methanogenesis = assay: In vivo effects upon methanogenesis in cattle; settings: for Methane Inhibition: 360 kg cattle, at least 7 days
Excerpt: Cattle were fed 5 to 7 kg./day of a 70% concentrate ration which was medicated to supply 0 to 2 g. of dithiooxamide per animal daily. After feeding medicated rations for at least 7 days, gas samples were obtained by rumen puncture for chromatographic assay of methane.
^1 360 Kg. Cattle fed either 5, 6 or 7 kg./day.

[4] = tested on: rumen microbial deamination; assay: In vivo effects upon amino acid deamination in rumen fistulated cattle; settings: for Quantity of amino acids in the rumen: per rumen
Experimental: Rumen fistulated cattle were fed a pelleted 60% concentrate diet. To conduct the test, animals received ruminal doses of a mixture of free amino acids to provide 338 mMoles of total free amino acids (threonine 4.5 g., methionine 6.0 g., isoleucine 5.0 g., leucine 5.0 g., phenylalanine 6.5 g., lysine 7.5 g., histidine 8.5 g.), 50 g. of a soluble rumen marker, polyethylene glycol (PEG) and 0 to 4 g. dithiooxamide. Total amino acid concentration was determined by the procedure of Borchers [Anal. Chem., 31 (7): 1179]. Activity was assessed as changes, with respect to time, of the quantity of total free amino acids in the rumen. Inhibition of rumen microbial deamination results in a greater quantity of free amino acids in the rumen.
^1 Polyethylene glycol was used as a marker to estimate rumen volume
and correct for changes in amino acid concentration due to changes in
rumen volume during the six hour experiment.
^2 mMoles of amino acid per rumen.

[5] = tested on: Microbial Deaminase (strained rumen fluid); assay: In vitro effects upon amino acid deamination (rumen fluid, starch, urea; 5 hours); format: cell-based
Experimental: The in vitro fermentation system contained 50 ml. strained rumen fluid, 8 mM urea, 1 g. starch, 1.8 mM of each of 10 essential amino acids (threonine, valine, methionine, isoleucine, leucine, phenylalanine, tryptophan, lysine and arginine) and 0 to 100 ppm dithiooxamide. Flasks were incubated under a CO2 atmosphere for 5 hours with total amino acids assayed prior to and at the end of the fermentation by the method of Borchers [Anal. Chem., 31, (7):1179]. Percent apparent inhibition of deamination in treated flasks was calculated relative to control flasks without added dithiooxamide. Apparent inhibition of deamination in excess of 100% may be observed because of the liberation of amino acids from proteinaceous materials contained in rumen fluid.
Inhibition of deamination (%) =
Control deamination (%) - Treated deamination (%)
Control deamination (%)
^1 In vitro fermentation system contained 50 ml. strained rumen fluid
1 g. starch, 8 mM urea and 1.8 mM of each of ten essential amino acids.
Flasks were incubated under a CO2 atmosphere for five hours.

animals = assay: Toxicity statement (animals); settings: when used as described
[6] = Table III, varying concentrations of cobalt and copper

NC(=S)C(N)=S [Dithiooxamide, dithiooxamide]
Gas Production ([1]; dithiooxamide 25 ppm + cobalt sulfate .013 ppm): 82 cc
Gas Production ([1]; dithiooxamide 25 ppm + cobalt sulfate .066 ppm): 86 cc
Gas Production ([1]; dithiooxamide 25 ppm + copper sulfate .067 ppm): 85 cc
Gas Production ([1]; dithiooxamide 25 ppm + copper sulfate .333 ppm): 83 cc
Gas Production ([1]; dithiooxamide 25 ppm, no added cobalt or copper): 85 cc
methane production (in words) ([2]; Table II): would suppress methane production
inhibition at 5 ppm ([2]; Table II, 5 ppm dithiooxamide, 4 h, read-out: Methane Inhibition (%)): 12%
inhibition at 10 ppm ([2]; Table II, 10 ppm dithiooxamide, 4 h, read-out: Methane Inhibition (%)): 88%
inhibition at 25 ppm ([2]; Table II, 25 ppm dithiooxamide, 4 h, read-out: Methane Inhibition (%)): 96%
inhibition at 50 ppm ([2]; Table II, 50 ppm dithiooxamide, 4 h, read-out: Methane Inhibition (%)): 99%
Methane Inhibition (%) ([2]; Table III, dithiooxamide 25 ppm + cobalt sulfate .066 ppm): 93%
inhibition at 25 ppm ([2]; Table III, dithiooxamide 25 ppm, no added cobalt or copper, read-out: Methane Inhibition (%)): 92%
methane inhibition on adding cobalt and copper (in words) [2, 6]: not affected by adding varying concentrations of cobalt and copper
inhibition at 5 ppm ([3]; 4 h, Table II, 5 ppm dithiooxamide, 4 h, read-out: MDI (%)): 6%
inhibition at 10 ppm ([3]; 4 h, Table II, 10 ppm dithiooxamide, 4 h, read-out: MDI (%)): 68%
inhibition at 25 ppm ([3]; 4 h, Table II, 25 ppm dithiooxamide, 4 h, read-out: MDI (%)): 65%
inhibition at 50 ppm ([3]; 4 h, Table II, 50 ppm dithiooxamide, 4 h, read-out: MDI (%)): 94%
inhibition at 25 ppm ([3]; 4 h, Table III, dithiooxamide 25 ppm, no added cobalt or copper, read-out: MDI (%)): 78%
inhibition of microbial deamination of amino acids (in words) ([3]; Table II): effective inhibitor of microbial deamination of amino acids
MDI (%) ([3]; Table III, dithiooxamide 25 ppm + cobalt sulfate .013 ppm): 81%
MDI (%) ([3]; Table III, dithiooxamide 25 ppm + copper sulfate .333 ppm): 90%
Deaminase inhibition on adding cobalt and copper (in words) [3, 6]: not affected by adding varying concentrations of cobalt and copper
Methane Inhibition (methanogenesis; 1.0 g./day dithiooxamide in feed): 51
Methane Inhibition (methanogenesis; 2.0 g./day dithiooxamide in feed): 85
Methane Inhibition (methanogenesis; .5 g./day dithiooxamide in feed): 25
antimethanogenic activity (in words) (methanogenesis; Table V): verified the antimethanogenic activity
Quantity of amino acids in the rumen ([4]; 0.5 g dithiooxamide ruminal dose, 0 h after dosing, control 338): 338 mmol
Quantity of amino acids in the rumen ([4]; 0.5 g dithiooxamide ruminal dose, 3 h after dosing, control 152): 192 mmol
Quantity of amino acids in the rumen ([4]; 0.5 g dithiooxamide ruminal dose, 6 h after dosing, control 47): 78 mmol
Quantity of amino acids in the rumen ([4]; 1.0 g dithiooxamide ruminal dose, 0 h after dosing, control 338): 338 mmol
Quantity of amino acids in the rumen ([4]; 1.0 g dithiooxamide ruminal dose, 3 h after dosing, control 152): 198 mmol
Quantity of amino acids in the rumen ([4]; 1.0 g dithiooxamide ruminal dose, 6 h after dosing, control 47): 162 mmol
Quantity of amino acids in the rumen ([4]; 2.0 g dithiooxamide ruminal dose, 0 h after dosing, control 338): 338 mmol
Quantity of amino acids in the rumen ([4]; 2.0 g dithiooxamide ruminal dose, 3 h after dosing, control 152): 209 mmol
Quantity of amino acids in the rumen ([4]; 2.0 g dithiooxamide ruminal dose, 6 h after dosing, control 47): 218 mmol
Quantity of amino acids in the rumen ([4]; 4.0 g dithiooxamide ruminal dose, 0 h after dosing, control 338): 338 mmol
Quantity of amino acids in the rumen ([4]; 4.0 g dithiooxamide ruminal dose, 3 h after dosing, control 152): 270 mmol
Quantity of amino acids in the rumen ([4]; 4.0 g dithiooxamide ruminal dose, 6 h after dosing, control 47): 308 mmol
prevention of degradation of free amino acids in the rumen (in words) ([4]; Table IV): effective agent in preventing his degradation and increasing the size of the pool of amino acids in the rumen
inhibition at 2.5 ppm ([5]; 2.5 ppm dithiooxamide, 5 h, 1 replication, read-out: MDI (%)): 0%
inhibition at 5 ppm ([5]; 5 ppm dithiooxamide, 5 h, 4 replications, read-out: MDI (%)): 35%
inhibition at 7.5 ppm ([5]; 7.5 ppm dithiooxamide, 5 h, 1 replication, read-out: MDI (%)): 71%
inhibition at 10 ppm ([5]; 10 ppm dithiooxamide, 5 h, 4 replications, read-out: MDI (%)): 57%
inhibition at 25 ppm ([5]; 25 ppm dithiooxamide, 5 h, 4 replications, read-out: MDI (%)): 62%
inhibition at 50 ppm ([5]; 50 ppm dithiooxamide, 5 h, 2 replications, read-out: MDI (%)): 84%
inhibition at 75 ppm ([5]; 75 ppm dithiooxamide, 5 h, 1 replication, read-out: MDI (%)): 100%
inhibition at 100 ppm ([5]; 100 ppm dithiooxamide, 5 h, 1 replication, read-out: MDI (%)): 117%
inhibition of microbial deamination of amino acids (in words) ([5]; Table I, 7.5 to 100 ppm): effective inhibitor of microbial deamination of amino acids over a wide concentration range
toxicity (in words) (animals): relatively nontoxic
